Reference: US4217274A, “Methoxyethoxymethyl esters of penicillins” (Bristol-Myers Company, priority 1978, dated 1980)
Converted amounts (≈) assume the structure as drawn. Like-named read-outs stand apart in the source and are kept apart here.

Key:
[1] = tested on: Str. pyogenes; test: MIC, antibiotic dilution technique (agar); assay type: cell-based, S. pyogenes; details: Streptococcus pyogenes
Source text: (§1) Bacteria. The organisms, preponderantly of recent clinical origin, were obtained from numerous sources of broad geographical distribution. Obligate anaerobes were maintained in Egg Meat Medium (Difco); Mycobacterium was stored on Lowenstein Medium (Jensen Modification; Difco). The techniques of storing all other organisms have been described previously [Leitner et al., BL-S640, A Cephalosporin with a Broad Spectrum of Antibacterial Activity: Properties in vitro, Antimicrob. Agents Chemother., 7, 298-305 (1975)].
(§2) Antibiotic spectrum. The growth-inhibitory activity of the compounds was determined by the antibiotic dilution technique. Procedures were as follows:
(§3) Aerobic organisms (excluding Mycobacterium). Except for Haemophilus and Neisseria, the assay was performed in Mueller-Hinton Medium (Difco). For fastidious organisms, i.e., Streptococcus, Listeria, Pasteurella, Bordetella and Vibrio, the medium was supplemented with 4% defibrinated sheep blood. The antibiotic susceptibility of Haemophilus and Neisseria was determined in GC Medium Base (BBL) supplemented with 1% Hemoglobin (BBL) and 1% Isovitalex (BBL).
(§4) Overnight broth cultures of an exponentially growing culture (Neisseria) served as the source of inoculum. A volume of approximately 0.003 ml. of the undiluted or diluted culture was applied to the surface of the antibiotic-containing agar plates with the inoculator of Steers et al., An Inocula Replicating Apparatus for Routine Testing of Bacterial Susceptibility to Antibiotics, Antibiot. Chemother., 9, 307-311, (1959). Cultures of Neisseria, Streptococcus pneumoniae, S. viridans and S. pyogenes were used without dilution; those of all other organisms were diluted 100-fold. The inoculum contained about 10^3 viable cells for Neisseria, 10^5 for S. pneumoniae and S. pyogenes, 10^6 for S. viridans and 10^4 for all other species.

[2] = tested on: E. Coli; test: MIC, antibiotic dilution technique (agar); assay type: cell-based; details: Escherichia coli
Source text: as §1, §2, §3, §4

[3] = tested on: Pr. rettgeri; test: MIC, antibiotic dilution technique (agar); assay type: cell-based; details: Providencia rettgeri
Source text: as §1, §2, §3, §4

[4] = tested on: K. pneumoniae; test: MIC, antibiotic dilution technique (agar); assay type: cell-based; details: Klebsiella pneumoniae
Source text: as §1, §2, §3, §4

[5] = tested on: S. aureus Meth-Res.; test: MIC, antibiotic dilution technique (agar); assay type: cell-based; details: Staphylococcus aureus
Source text: as §1, §2, §3, §4

[6] = tested on: S. aureus; test: MIC, antibiotic dilution technique (agar); assay type: cell-based; details: Staphylococcus aureus
Source text: as §1, §2, §3, §4

[7] = tested on: Pr. vulgaris; test: MIC, antibiotic dilution technique (agar); assay type: cell-based; details: Proteus vulgaris
Source text: as §1, §2, §3, §4

[8] = tested on: Pr. morganii; test: MIC, antibiotic dilution technique (agar); assay type: cell-based; details: Morganella morganii
Source text: as §1, §2, §3, §4

[9] = tested on: Ps. aeruginosa; test: MIC, antibiotic dilution technique (agar); assay type: cell-based; details: Pseudomonas aeruginosa
Source text: as §1, §2, §3, §4

[10] = tested on: Pr. mirabilis; test: MIC, antibiotic dilution technique (agar); assay type: cell-based; details: Proteus mirabilis
Source text: as §1, §2, §3, §4

[11] = tested on: Str. pneumoniae; test: MIC, antibiotic dilution technique (agar); assay type: cell-based; details: Streptococcus pneumoniae
Source text: as §1, §2, §3, §4

[12] = tested on: Ser. marcescens; test: MIC, antibiotic dilution technique (agar); assay type: cell-based; details: Serratia marcescens
Source text: as §1, §2, §3, §4

[13] = tested on: Ent. cloacae; test: MIC, antibiotic dilution technique (agar); assay type: cell-based; details: Enterobacter cloacae
Source text: as §1, §2, §3, §4

[14] = tested on: Str. faecalis; test: MIC, antibiotic dilution technique (agar); assay type: cell-based; details: Enterococcus faecalis
Source text: as §1, §2, §3, §4

[15] = tested on: S. aureus Pen-Res.; test: MIC, antibiotic dilution technique (agar); assay type: cell-based; details: Staphylococcus aureus
Source text: as §1, §2, §3, §4

[16] = Mouse blood levels after oral administration (disc diffusion bioassay, Bacillus subtilis); details: in vivo, 100 mg/kg
[17] = tested on: E. Coli; test: MIC, antibiotic dilution technique (agar), Table 4; assay type: cell-based; details: Escherichia coli
Source text: as §1, §2, §3, §4

[18] = tested on: S. pneumoniae; test: MIC, antibiotic dilution technique (agar), Table 4; assay type: cell-based; details: Streptococcus pneumoniae; Table 4, 7 strains, geometric mean where applicable
Source text: as §1, §2, §3, §4

[19] = tested on: S. faecalis; test: MIC, antibiotic dilution technique (agar), Table 4; assay type: cell-based; details: Enterococcus faecalis; Table 4, 6 strains, geometric mean where applicable
Source text: as §1, §2, §3, §4

[20] = tested on: S. pyogenes; test: MIC, antibiotic dilution technique (agar), Table 4; assay type: cell-based; details: Streptococcus pyogenes; Table 4, 6 strains, geometric mean where applicable
Source text: as §1, §2, §3, §4

[21] = tested on: Streptococcus sp. (β-hemolytic); test: MIC, antibiotic dilution technique (agar), Table 4; assay type: cell-based; details: Table 4, 6 strains, geometric mean where applicable
Source text: as §1, §2, §3, §4

[22] = tested on: S. marcescens; test: MIC, antibiotic dilution technique (agar), Table 4; assay type: cell-based; details: Serratia marcescens
Source text: as §1, §2, §3, §4

[23] = tested on: K. pneumoniae; test: MIC, antibiotic dilution technique (agar), Table 4; assay type: cell-based; details: Klebsiella pneumoniae
Source text: as §1, §2, §3, §4

[24] = tested on: E. cloacae; test: MIC, antibiotic dilution technique (agar), Table 4; assay type: cell-based; details: Enterobacter cloacae; Table 4, 2 strains, geometric mean where applicable
Source text: as §1, §2, §3, §4

[25] = tested on: S. aureus (lacking penase); test: MIC, antibiotic dilution technique (agar), Table 4; assay type: cell-based; details: Staphylococcus aureus; Table 4, 6 strains, geometric mean where applicable
Source text: as §1, §2, §3, §4

[26] = tested on: p. vulgaris; test: MIC, antibiotic dilution technique (agar), Table 4; assay type: cell-based; details: Proteus vulgaris; Table 4, 2 strains, geometric mean where applicable
Source text: as §1, §2, §3, §4

[27] = tested on: P. rettgeri; test: MIC, antibiotic dilution technique (agar), Table 4; assay type: cell-based; details: Providencia rettgeri
Source text: as §1, §2, §3, §4

[28] = tested on: P. mirabilis; test: MIC, antibiotic dilution technique (agar), Table 4; assay type: cell-based; details: Proteus mirabilis
Source text: as §1, §2, §3, §4

[29] = tested on: S. viridans; test: MIC, antibiotic dilution technique (agar), Table 4; assay type: cell-based; details: Streptococcus viridans
Source text: as §1, §2, §3, §4

SMILES: CC1(C)S[C@@H]2[C@H](NC(=O)[C@H](N)c3ccc(O)cc3)C(=O)N2[C@H]1C(=O)O [Amoxicillin, amoxicillin]
- MIC ([1]; Table 2, Str. pyogenes): 4 ng/mL (≈ 0.0109 µM)
- MIC ([2]; Table 2, E. coli, first line): 0.5 µg/mL (≈ 1.37 µM)
- MIC ([2]; Table 2, E. coli, second line): > 125 µg/mL
- MIC ([3]; Table 2, Pr. rettgeri): 16 µg/mL (≈ 43.8 µM)
- MIC ([4]; Table 2, K. pneumoniae, first line): 125 µg/mL (≈ 342 µM)
- MIC ([4]; Table 2, K. pneumoniae, second line): > 125 µg/mL
- MIC ([5]; Table 2, S. aureus Meth-Res.): 32 µg/mL (≈ 87.6 µM)
- MIC ([6]; Table 2, S. aureus): 0.03 µg/mL (≈ 0.0821 µM)
- MIC ([6]; Table 2, S. aureus + 50% serum): 0.06 µg/mL
- MIC ([7]; Table 2, Pr. vulgaris): 0.06 µg/mL (≈ 0.164 µM)
- MIC [8]: 125 µg/mL (≈ 342 µM)
- MIC ([9]; Table 2, Ps. aeruginosa, first line): 125 µg/mL (≈ 342 µM)
- MIC ([9]; Table 2, Ps. aeruginosa, second line): > 125 µg/mL
- MIC ([10]; Table 2, Pr. mirabilis): 0.06 µg/mL (≈ 0.164 µM)
- MIC ([11]; Table 2, Str. pneumoniae): 4 ng/mL (≈ 0.0109 µM)
- MIC ([12]; Table 2, Ser. marcescens): 32 µg/mL (≈ 87.6 µM)
- MIC [13]: 125 µg/mL (≈ 342 µM)
- MIC ([13]; Table 2, Ent. cloacae, first line, read-out: MIC): 63 µg/mL (≈ 172 µM)
- MIC ([14]; Table 2, Str. faecalis): 0.06 µg/mL (≈ 0.164 µM)
- MIC [15]: > 125 µg/mL
- concentration at 0.25 h [16]: 9500 ng/mL
- concentration at 0.5 h [16]: 16900 ng/mL
- concentration at 1 h [16]: 14200 ng/mL
- concentration at 1.5 h [16]: 8700 ng/mL
- concentration at 2 h [16]: 6300 ng/mL
- concentration at 3 h [16]: 3100 ng/mL

SMILES: CC1(C)S[C@@H]2[C@H](NC(=O)[C@H](N)c3ccccc3)C(=O)N2[C@H]1C(=O)O [Ampicillin, ampicillin]
- MIC ([1]; Table 1, Str. pyogenes): 8 ng/mL (≈ 0.0229 µM)
- MIC ([2]; Table 1, E. Coli, first line): 1 µg/mL (≈ 2.86 µM)
- MIC ([2]; Table 1, E. Coli, second line): 63 µg/mL (≈ 180 µM)
- MIC ([3]; Table 1, Pr. rettgeri): 8 µg/mL (≈ 22.9 µM)
- MIC ([4]; Table 1, K. pneumoniae, first line, read-out: MIC): 63 µg/mL (≈ 180 µM)
- MIC ([4]; Table 1, K. pneumoniae, second line, read-out: MIC): 32 µg/mL (≈ 91.6 µM)
- MIC ([5]; Table 1, S. aureus Meth-Res.): 16 µg/mL (≈ 45.8 µM)
- MIC ([6]; Table 1, S. aureus): 0.03 µg/mL (≈ 0.0859 µM)
- MIC ([6]; Table 1, S. aureus + 50% serum): 0.06 µg/mL
- MIC ([7]; Table 1, Pr. vulgaris): 0.13 µg/mL (≈ 0.372 µM)
- MIC [8]: 125 µg/mL (≈ 358 µM)
- MIC ([9]; Table 1, Ps. aeruginosa, first line, read-out: MIC): 63 µg/mL (≈ 180 µM)
- MIC ([9]; Table 1, Ps. aeruginosa, second line): > 125 µg/mL
- MIC ([10]; Table 1, Pr. mirabilis): 0.06 µg/mL (≈ 0.172 µM)
- MIC ([11]; Table 1, Str. pneumoniae): 4 ng/mL (≈ 0.0114 µM)
- MIC ([12]; Table 1, Ser. marcescens): 16 µg/mL (≈ 45.8 µM)
- MIC ([13]; Table 1, Ent. cloacae, first line, read-out: MIC): 32 µg/mL (≈ 91.6 µM)
- MIC ([13]; Table 1, Ent. cloacae, second line, read-out: MIC): 32 µg/mL (≈ 91.6 µM)
- MIC ([14]; Table 1, Str. faecalis): 0.13 µg/mL (≈ 0.372 µM)
- MIC [15]: 125 µg/mL (≈ 358 µM)
- concentration at 0.25 h [16]: 3500 ng/mL
- concentration at 0.5 h [16]: 6600 ng/mL
- concentration at 1 h [16]: 6800 ng/mL
- concentration at 1.5 h [16]: 4300 ng/mL
- concentration at 2 h [16]: 2500 ng/mL
- concentration at 3 h [16]: 1100 ng/mL
- MIC ([17]; 1 strain (first line)): 0.5 µg/mL (≈ 1.43 µM)
- MIC ([17]; 1 strain (fourth line)): > 125 µg/mL
- MIC ([17]; 1 strain (third line)): 63 µg/mL (≈ 180 µM)
- MIC ([17]; 3 strains (second line), geometric mean where applicable): 2.5 µg/mL (≈ 7.15 µM)
- MIC [18]: 0.02 µg/mL (≈ 0.0572 µM)
- MIC [19]: 1 µg/mL (≈ 2.86 µM)
- MIC [20]: 0.016 µg/mL (≈ 0.0458 µM)
- MIC [21]: 0.063 µg/mL (≈ 0.18 µM)
- MIC ([22]; 1 strain (first line), read-out: MIC): 63 µg/mL (≈ 180 µM)
- MIC ([22]; 1 strain (second line)): > 125 µg/mL
- MIC [23]: > 125 µg/mL
- MIC ([23]; Table 4, K. pneumoniae, 1 strain (first line), read-out: MIC): 32 µg/mL (≈ 91.6 µM)
- MIC [24]: 63 µg/mL (≈ 180 µM)
- MIC [25]: 0.07 µg/mL (≈ 0.2 µM)
- MIC [26]: 0.35 µg/mL (≈ 1 µM)
- MIC ([27]; Table 4, P. retgeri, 2 strains (third line), geometric mean where applicable): 32 µg/mL (≈ 91.6 µM)
- MIC ([27]; Table 4, P. rettgeri, 1 strain (first line)): 0.13 µg/mL (≈ 0.372 µM)
- MIC ([27]; Table 4, P. rettgeri, 1 strain (second line)): 4 µg/mL (≈ 11.4 µM)
- MIC [28]: > 125 µg/mL
- MIC ([28]; Table 4, P. mirabilis, 4 strains, geometric mean where applicable, read-out: MIC): 2 µg/mL (≈ 5.72 µM)
- MIC ([29]; Table 4, S. viridans, 1 strain (second line)): 0.063 µg/mL (≈ 0.18 µM)
- MIC ([29]; Table 4, S. viridans, 3 strains, geometric mean where applicable): 0.05 µg/mL (≈ 0.143 µM)
- MIC ([29]; Table 4, s. viridans, 1 strain (third line)): 0.35 µg/mL (≈ 1 µM)
